Results as given in US12263248B2, “Compounds and compositions for intracellular delivery of therapeutic agents” (ModernaTX, Inc., priority 2018, dated 2025).

Assays:
luciferase (Luc) mRNA [1] = assay: Luc expression, whole body bioluminescence after intravenous administration to mice; format: in vivo; details: for Fold increase in total body Luc Flux relative to MC3 at 6 h: Table 3A; for Total Flux 3 hours / Total Flux 6 hours / Total Flux 24 hours: Luc mRNA; for flux at all timepoints measured: 3, 6 and 24 hour, in words
Description: In order to monitor how effectively various nanoparticle compositions deliver therapeutic and/or prophylactics to targeted cells, different nanoparticle compositions including a particular therapeutic and/or prophylactic (for example, a modified or naturally occurring RNA such as an mRNA) are prepared and administered to rodent populations. Mice are intravenously, intramuscularly, intraarterially, or intratumorally administered a single dose including a nanoparticle composition with a formulation such as those provided in Example 3. In some instances, mice may be made to inhale doses. Dose sizes may range from 0.001 mg/kg to 10 mg/kg, where 10 mg/kg describes a dose including 10 mg of a therapeutic and/or prophylactic in a nanoparticle composition for each 1 kg of body mass of the mouse. A control composition including PBS may also be employed.
Upon administration of nanoparticle compositions to mice, dose delivery profiles, dose responses, and toxicity of particular formulations and doses thereof can be measured by enzyme-linked immunosorbent assays (ELISA), bioluminescent imaging, or other methods. For nanoparticle compositions including mRNA, time courses of protein expression can also be evaluated. Samples collected from the rodents for evaluation may include blood, sera, and tissue (for example, muscle tissue from the site of an intramuscular injection and internal tissue); sample collection may involve sacrifice of the animals.
The efficacy of the nanoparticle compositions presented in Table 1A was evaluated with a bioluminescence study. Formulations were administered intravenously to mice (n=6) at a dosage of 0.5 mg/kg (mpk) and bioluminescence measured at 3, 6, and 24 hour time points. The standard MC3 formulation and, in some instances, a control (e.g., a PBS control) were evaluated for comparison. […] In general, flux decreased as time progressed to less than 10% of the initial flux.
(§1) Whole body and ex vivo organ bioluminescent imaging of mice: CD-1 mice were injected 15 minutes prior to the imaging timepoint intraperitoneally (IP) with 200 μL Xenolight D-luciferin K+ salt, diluted in PBS just prior to use to a concentration of 15 mg/mL. Ex vivo imaging of organs was completed within 25 minutes of luciferin administration. All images were quantified by region of interest for total flux.

[2] = Particle size and polydispersity index of nanoparticle compositions (Zetasizer Nano ZS); format: physicochemical
Description: A Zetasizer Nano ZS (Malvern Instruments Ltd, Malvern, Worcestershire, UK) can be used to determine the particle size, the polydispersity index (PDI) and the zeta potential of the nanoparticle compositions in 1×PBS in determining particle size and 15 mM PBS in determining zeta potential.

luciferase (Luc) mRNA [3] = assay: Luc expression in liver, lung, spleen and femur 6 hours after intravenous administration; format: in vivo; details: mice, 0.5 mpk; for Flux in the spleen / Flux in the liver: i.v., in words; for Total Flux Liver / Total Flux Lung / Total Flux Spleen: intravenous
Description: The efficacy of the nanoparticle compositions presented in Table 1A was further evaluated by measuring the expression of modified luciferase in the liver, lung, spleen, and femur upon administration of a given composition. Formulations were administered intravenously to mice (n=3) at a dosage of 0.5 mpk and bioluminescence measured after 6 hours. The standard MC3 formulation and a PBS control were also tested. […] Flux in the liver was lowest for compositions including Compounds 58, 59, 137, and 141. Flux in the spleen was highest for compositions including Compounds 4, 7, 33, 34, 48, 53, 108, 129, 130, and 148, and lowest for compositions including Compounds 9, 59, 124, and 141.
as §1

[4] = Encapsulation efficiency of RNA (QUANT-IT RIBOGREEN RNA assay); format: physicochemical
Description: For nanoparticle compositions including an RNA, a QUANT-IT™ RIBOGREEN® RNA assay (Invitrogen Corporation Carlsbad, CA) can be used to evaluate the encapsulation of an RNA by the nanoparticle composition. The samples are diluted to a concentration of approximately […] in a TE buffer solution (10 mM Tris-HCl, 1 mM EDTA, pH 7.5). 50 μL of the diluted samples are transferred to a polystyrene 96 well plate and either 50 μL of TE buffer or 50 μL of a 2% Triton X-100 solution is added to the wells. The plate is incubated at a temperature of 37° C. for 15 minutes. The RIBOGREEN® reagent is diluted 1:100 in TE buffer, and 100 μL of this solution is added to each well. The fluorescence intensity can be measured using a fluorescence plate reader (Wallac Victor 1420 Multilabel Counter; Perkin Elmer, Waltham, MA) at an excitation wavelength of, for example, about 480 nm and an emission wavelength of, for example, about 520 nm. The fluorescence values of the reagent blank are subtracted from that of each of the samples and the percentage of free RNA is determined by dividing the fluorescence intensity of the intact sample (without addition of Triton X-100) by the fluorescence value of the disrupted sample (caused by the addition of Triton X-100).

[5] = Table 1A, lipid:DSPC:cholesterol:PEG-DMG 50:10:38.5:1.5 mol %
[6] = Table 1B, formulated with hEPO mRNA

Row | Structure (SMILES) | PDI ([2]; Table 1A) | Size (nm) [2, 5] [nm] | EE (%) ([4]; Table 1A) | PDI [2, 6] | Size (nm) [2, 6] [nm] | EE (%) [4, 6] [%] | Fold increase in total body Luc Flux relative to MC3 at 6 h (luciferase (Luc) mRNA [1]; i.v. administration) | Total Flux 3 hours (luciferase (Luc) mRNA [1]; mice, i.v., 0.5 mg/kg) | Total Flux 6 hours (luciferase (Luc) mRNA [1]; mice, i.v., 0.5 mg/kg) | Total Flux 24 hours (luciferase (Luc) mRNA [1]; mice, i.v., 0.5 mg/kg) | Flux in the spleen (luciferase (Luc) mRNA [3]) | Total Flux Liver (luciferase (Luc) mRNA [3]) | Total Flux Lung (luciferase (Luc) mRNA [3]) | Total Flux Spleen (luciferase (Luc) mRNA [3]) | 6 h Lipid/MC3 Avg. Luc Expression (luciferase (Luc) mRNA [1]; Table 3C, i.v. administration) | Fold increase AUC Lipid/MC3 (luciferase (Luc) mRNA [1]; Table 3C, i.v. administration) | AUC (h * p/s) (luciferase (Luc) mRNA [1]; Table 3C, i.v. administration, Luc) | total flux at 3 hours (luciferase (Luc) mRNA [1]; mice, i.v., 0.5 mg/kg, comparison in words) | flux at all timepoints measured (luciferase (Luc) mRNA [1]; mice, i.v., 0.5 mg/kg) | Flux in the liver (luciferase (Luc) mRNA [3])
1 | CCCCCCCCC(CCCCCCCC)OC(=O)CCCCCCCN(CCO)CCCC(=O)OCCCCCC [Compound 53, heptadecan-9-yl 8-((4-(hexyloxy)-4-oxobutyl)(2-hydroxyethyl)amino) octanoate] | 0.13 | 125.4 | 95.8 |  |  |  | 2.11 | 1.91E+10 | 2.32E+10 | 1.01E+09 | highest | 2.02E+09 | 2.47E+07 | 8.54E+08 |  |  |  |  |  | 
2 | CCCCCCCCC(CCCCCCCC)OC(=O)CCCCCCCN(CCO)CCCC(=O)OCCCCC [Compound 52, heptadecan-9-yl 8-((2-hydroxyethyl)(4-oxo-4-(pentyloxy)butyl)amino) octanoate] | 0.19 | 130.5 | 93.25 |  |  |  |  | 2.91E+09 | 4.63E+09 | 2.55E+07 |  | 5.86E+08 | 2.80E+06 | 8.30E+07 |  |  |  |  |  | 
3 | CCCCCCCCC(CCCCCCCC)OC(=O)CCCCCCCN(CCO)CCCCCCCC(=O)OC1CCC(CCCCC)CC1 (stereo not shown) [Compound 66, Heptadecan-9-yl 8-((2-hydroxyethyl)(8-oxo-8-((4-pentylcyclohexyl)oxy)octyl)amino)octanoate] | 0.120 | 76.7 | 96.52 |  |  |  | 0.103 | 9.66E+10 | 4.577E+10 | 5.56E+09 |  | 5.01E+09 | 4.20E+06 | 2.00E+07 | 6.28 | 8.20 | 6.76E+11 | highest |  | 
4 | CCCCCCCCCOC(=O)CCCCCCCN(CCO)CCCCCCCC(=O)OC(CCCCCC)CCCCCC [Compound 56, nonyl 8-((2-hydroxyethyl)(8-oxo-8-(tridecan-7-yloxy)octyl)amino) octanoate] | 0.17 | 112.1 | 95.18 |  |  |  | 0.733 | 1.27E+10 | 8.06E+09 | 2.53E+08 |  | 1.04E+09 | 4.62E+06 | 1.98E+08 |  |  |  |  |  | 
5 | CCCCCCCCCOC(=O)CCCCCCCN(CCO)CCCCCCCC(=O)OC(CC)CC [Compound 59, nonyl 8-((2-hydroxyethyl)(8-oxo-8-(pentan-3-yloxy)octyl)amino) octanoate] | 0.24 | 237.0 | 94.44 |  |  |  | 0.00003 | 2.75E+05 | 2.79E+05 | 1.45E+05 | lowest | 2.87E+05 | 4.41E+04 | 9.68E+04 |  |  |  |  | significantly lower flux | lowest
6 | CCCCCCCCCOC(=O)CCCCCCCN(CCO)CCCCCCCC(=O)OC(CCC)CCC [Compound 58, heptan-4-yl 8-((2-hydroxyethyl)(8-(nonyloxy)-8-oxooctyl)amino) octanoate] | 0.14 | 130.8 | 92.54 |  |  |  | 0.00007 | 5.69E+05 | 7.60E+05 | 3.64E+05 |  | 8.71E+04 | 1.21E+04 | 2.38E+05 |  |  |  |  | significantly lower flux | lowest
7 | CCCCCCCCCOC(=O)CCCCCCCN(CCC#N)CCCCCCCC(=O)OC(CCCCCCCC)CCCCCCCC [Compound 21, Heptadecan-9-yl 8-((2-cyanoethyl)(8-(nonyloxy)-8-oxooctyl)amino) octanoate] |  | 53.5 | −15.1 |  |  |  |  |  |  |  |  |  |  |  |  |  |  |  |  | 

Continued, in another order:

Row | PDI ([2]; Table 1A) | Size (nm) [2, 5] [nm] | EE (%) ([4]; Table 1A) | PDI [2, 6] | Size (nm) [2, 6] [nm] | EE (%) [4, 6] [%] | Structure (SMILES) | Fold increase in total body Luc Flux relative to MC3 at 6 h (luciferase (Luc) mRNA [1]; i.v. administration) | Total Flux 3 hours (luciferase (Luc) mRNA [1]; mice, i.v., 0.5 mg/kg) | Total Flux 6 hours (luciferase (Luc) mRNA [1]; mice, i.v., 0.5 mg/kg) | Total Flux 24 hours (luciferase (Luc) mRNA [1]; mice, i.v., 0.5 mg/kg) | Flux in the spleen (luciferase (Luc) mRNA [3]) | Total Flux Liver (luciferase (Luc) mRNA [3]) | Total Flux Lung (luciferase (Luc) mRNA [3]) | Total Flux Spleen (luciferase (Luc) mRNA [3]) | 6 h Lipid/MC3 Avg. Luc Expression (luciferase (Luc) mRNA [1]; Table 3C, i.v. administration) | Fold increase AUC Lipid/MC3 (luciferase (Luc) mRNA [1]; Table 3C, i.v. administration) | AUC (h * p/s) (luciferase (Luc) mRNA [1]; Table 3C, i.v. administration, Luc) | total flux at 3 hours (luciferase (Luc) mRNA [1]; mice, i.v., 0.5 mg/kg, comparison in words) | flux at all timepoints measured (luciferase (Luc) mRNA [1]; mice, i.v., 0.5 mg/kg) | Flux in the liver (luciferase (Luc) mRNA [3])
8 | 0.11 | 64.5 | 99.7 |  |  |  | CCCCCCCCCOC(=O)CCCCCCCN(CCCCCCCC(=O)OC(CCCCCCCC)CCCCCCCC)CCCn1ccc(N)nc1=O [Compound 115, Heptadecan-9-yl 8-((3-(4-amino-2-oxopyrimidin-1(2H)-yl)propyl)(8-(nonyloxy)-8-oxooctyl)amino)octanoate] |  | 2.13E+07 | 2.91E+07 |  |  |  |  |  |  |  |  |  |  | 
9 | 0.12 | 55.8 | 90.42 | 0.14 | 71.3 | 82.6 | CCCCCCCCCOC(=O)CCCCCCCN(CCCCCCCC(=O)OC(CCCCCCCC)CCCCCCCC)CCCC(=O)NC [Compound 239, Heptadecan-9-yl 8-((4-(methylamino)-4-oxobutyl)(8-(nonyloxy)-8-oxooctyl)amino)octanoate] |  |  |  |  |  |  |  |  |  |  |  |  |  | 
10 | 0.16 | 90.9 | 79.6 |  |  |  | CCCCCCCCCOC(=O)CCCCCCCN(CCCCCCCC(=O)OC(CCCCCCCC)CCCCCCCC)CCC(=O)O [Compound 125, 3-((8-(Heptadecan-9-yloxy)-8-oxooctyl)(8-(nonyloxy)-8-oxooctyl)amino)propanoic acid] |  | 2.44E+05 | 3.16E+05 |  |  |  |  |  |  |  |  |  | significantly lower flux | 
